This passage reports T/C results from PubChem BioAssay AID192 (DTP/NCI, 2004).

This assay relates to BDF1 mice, B16 melanoma ip, median survival T/C. The assay can be described thus: NCI In Vivo Anticancer Drug Screen. Data for tumor model B16 Melanoma (intraperitoneal) in B6D2F1 (BDF1) mice. Particulars: endpoint: median survival time, higher = longer survival. A digest of the protocol: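 Survival or tumor size is measured after treatment of tumor-bearing mice and normalised to the vehicle-treated control group.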

Setting [1] is: dose: 100.0 mg/kg/injection, schedule: Q04DX003 (ip), vehicle: Klucel (hydroxypropylcellulose) (HPC).
The mark [2] stands for this setting: dose: 200.0 mg/kg/injection, schedule: Q04DX003 (ip), vehicle: Klucel (hydroxypropylcellulose) (HPC).
Setting [3] is: dose: 400.0 mg/kg/injection, schedule: Q04DX003 (ip), vehicle: Klucel (hydroxypropylcellulose) (HPC).
Setting [4] is: dose: 25.0 mg/kg/injection, schedule: Q01DX009 (ip), vehicle: saline with Tween-80.
The mark [5] stands for this setting: dose: 100.0 mg/kg/injection, schedule: Q01DX009 (ip), vehicle: Klucel (hydroxypropylcellulose) (HPC).
Setting [6] is: dose: 100.0 mg/kg/injection, schedule: Q01DX009 (ip), vehicle: saline.
The mark [7] stands for this setting: dose: 6.25 mg/kg/injection, schedule: Q01DX009 (ip), vehicle: saline.
Where [8] appears, read: dose: 12.5 mg/kg/injection, schedule: Q01DX009 (ip), vehicle: saline.
Where [9] appears, read: dose: 25.0 mg/kg/injection, schedule: Q01DX009 (ip), vehicle: saline.
Setting [10] is: dose: 50.0 mg/kg/injection, schedule: Q01DX009 (ip), vehicle: saline.

SMILES strings stand for the structures. Inconclusive results and toxic doses are left out.

As for `Cc1ncc(CNC(=O)N(CCCl)N=O)c(N)n1`, the T/C by setting is: (dose: 1.56 mg/kg/injection, schedule: Q01DX009 (ip), vehicle: suspension in saline) 155 % of control; (dose: 3.12 mg/kg/injection, schedule: Q01DX009 (ip), vehicle: suspension in saline) 193 % of control; (dose: 6.25 mg/kg/injection, schedule: Q01DX009 (ip), vehicle: suspension in saline) 279 % of control; (dose: 12.5 mg/kg/injection, schedule: Q01DX009 (ip), vehicle: Klucel (hydroxypropylcellulose) (HPC)) 164 % of control; (dose: 12.5 mg/kg/injection, schedule: Q01DX009 (ip), vehicle: suspension in saline) 322 % of control.
As for `CC1OC(n2ccc(NC(=O)c3ccc(NC(=O)C(C)(N)CO)cc3)nc2=O)CC(O)C1OC1OC(C)C(N(C)C)C(O)C1O` (stereo not given), the T/C (dose: 2.5 mg/kg/injection, schedule: Q01DX009 (ip), vehicle: Klucel (hydroxypropylcellulose) (HPC)) is 117 % of control; the T/C (dose: 5.0 mg/kg/injection, schedule: Q01DX009 (ip), vehicle: Klucel (hydroxypropylcellulose) (HPC)) is 102 % of control; the T/C (dose: 10.0 mg/kg/injection, schedule: Q01DX009 (ip), vehicle: Klucel (hydroxypropylcellulose) (HPC)) is 103 % of control.
As to `Cc1cc(NS(=O)(=O)c2ccccc2)c2c(c1NS(=O)(=O)c1ccccc1)CC=CC2`, the T/C is, setting by setting: under setting [1], 97 % of control; under setting [2], 94 % of control; under setting [3], 86 % of control.
As for `CC(C)n1c(=S)[nH]c2ccccc2c1=O`, the T/C runs as follows: (dose: 16.5 mg/kg/injection, schedule: Q01DX009 (ip), vehicle: saline with Tween-80) 102 % of control; under setting [4], 94 % of control; (dose: 37.5 mg/kg/injection, schedule: Q01DX009 (ip), vehicle: saline with Tween-80) 100 % of control; under setting [5], 95 % of control; (dose: 100.0 mg/kg/injection, schedule: Q01DX009 (ip), vehicle: saline with Tween-80) 87 % of control; under setting [6], 117 % of control. For the same compound, the T/C (dose: 200.0 mg/kg/injection, schedule: Q01DX009 (ip), vehicle: Klucel (hydroxypropylcellulose) (HPC)) was 90 % of control.
Take `CNCCOC(c1ccccc1)c1ccccc1C` (stereo not given): the T/C is 97 % of control (dose: 3.12 mg/kg/injection, schedule: Q01DX009 (ip), vehicle: saline); 97 % of control under setting [7]; 102 % of control under setting [8]; 100 % of control under setting [9]; 104 % of control under setting [10].
`CCOC(=O)Nc1cc(N)cc(NC(=O)OCC)c1`: the T/C is, setting by setting: (dose: 50.0 mg/kg/injection, schedule: Q04DX003 (ip), vehicle: Klucel (hydroxypropylcellulose) (HPC)) 94 % of control; under setting [1], 100 % of control; under setting [2], 94 % of control.
In the case of `Cc1cc([N+](=O)[O-])c(S(N)(=O)=O)c([N+](=O)[O-])c1`, the T/C is 110 % of control (dose: 6.25 mg/kg/injection, schedule: Q01DX009 (ip), vehicle: water); 100 % of control (dose: 12.5 mg/kg/injection, schedule: Q01DX009 (ip), vehicle: water); 101 % of control (dose: 25.0 mg/kg/injection, schedule: Q01DX009 (ip), vehicle: water); 103 % of control (dose: 50.0 mg/kg/injection, schedule: Q01DX009 (ip), vehicle: water); 101 % of control (dose: 100.0 mg/kg/injection, schedule: Q01DX009 (ip), vehicle: water).
Take `C/C(=N\[N+](C)(C)C)c1ccc(Br)cc1`: the T/C runs as follows: under setting [9], 88 % of control; under setting [10], 102 % of control; under setting [6], 94 % of control.
Turning to `CC12CCC(O)CC1CCC1C2CCC2(C)C(c3ccc(=O)oc3)CC3OC312` (stereo not given), the T/C (dose: 0.31 mg/kg/injection, schedule: Q01DX009 (ip), vehicle: saline with Tween-80) is 102 % of control; the T/C (dose: 0.62 mg/kg/injection, schedule: Q01DX009 (ip), vehicle: saline with Tween-80) is 94 % of control; the T/C (dose: 1.25 mg/kg/injection, schedule: Q01DX009 (ip), vehicle: saline with Tween-80) is 95 % of control; the T/C (dose: 2.5 mg/kg/injection, schedule: Q01DX009 (ip), vehicle: saline with Tween-80) was 98 % of control; the T/C (dose: 5.0 mg/kg/injection, schedule: Q01DX009 (ip), vehicle: saline with Tween-80) is 100 % of control; the T/C (dose: 10.0 mg/kg/injection, schedule: Q01DX009 (ip), vehicle: saline with Tween-80) is 95 % of control.
`CCc1nc(N)nc(N)c1-c1ccc(Cl)c(Cl)c1`: the T/C by setting is: (dose: 4.0 mg/kg/injection, schedule: Q01DX009 (ip), vehicle: Klucel (hydroxypropylcellulose) (HPC)) 95 % of control; (dose: 8.0 mg/kg/injection, schedule: Q01DX009 (sc), vehicle: Klucel (hydroxypropylcellulose) (HPC)) 123 % of control; (dose: 64.0 mg/kg/injection, schedule: Q01DX001 (ip), vehicle: Klucel (hydroxypropylcellulose) (HPC)) 102 % of control.
As for `CCCCC(CC)COP(OCC(CC)CCCC)OCC(CC)CCCC` (stereo not given), the T/C is, setting by setting: (dose: 100.0 mg/kg/injection, schedule: Q04DX003 (ip), vehicle: saline with Tween-80) 93 % of control; (dose: 200.0 mg/kg/injection, schedule: Q04DX003 (ip), vehicle: saline with Tween-80) 86 % of control.
On to `CCN(CC)C(C)CN1c2ccccc2Sc2ccccc21` (stereo not given), for which the T/C is 95 % of control under setting [7]; 105 % of control under setting [8]; 105 % of control under setting [9]; 112 % of control under setting [10]; 112 % of control under setting [6].
As for `Nc1ccc2nc3ccc(N)cc3[n+](-c3ccccc3)c2c1`, the T/C was 97 % of control (dose: 3.75 mg/kg/injection, schedule: Q01DX009 (ip), vehicle: saline with Tween-80); 102 % of control (dose: 7.5 mg/kg/injection, schedule: Q01DX009 (ip), vehicle: saline with Tween-80); 100 % of control (dose: 10.0 mg/kg/injection, schedule: Q04DX003 (ip), vehicle: saline with Tween-80); 102 % of control (dose: 15.0 mg/kg/injection, schedule: Q01DX009 (ip), vehicle: saline with Tween-80); 107 % of control (dose: 20.0 mg/kg/injection, schedule: Q04DX003 (ip), vehicle: saline with Tween-80); 118 % of control (dose: 30.0 mg/kg/injection, schedule: Q01DX009 (ip), vehicle: saline with Tween-80). In addition, the T/C (dose: 40.0 mg/kg/injection, schedule: Q04DX003 (ip), vehicle: saline with Tween-80) is 100 % of control.
With `CC1CC(NC(=S)S)CC(C)(C)C1` (stereo not given), the T/C by setting is: (dose: 0.25 mg/kg/injection, schedule: Q01DX009 (ip), vehicle: Klucel (hydroxypropylcellulose) (HPC)) 96 % of control; (dose: 0.5 mg/kg/injection, schedule: Q01DX009 (ip), vehicle: Klucel (hydroxypropylcellulose) (HPC)) 96 % of control; (dose: 1.0 mg/kg/injection, schedule: Q01DX009 (ip), vehicle: Klucel (hydroxypropylcellulose) (HPC)) 100 % of control.
As to `CCCCCC(CN(C)C)C(O)/C=C/c1ccccc1Cl` (stereo not given), the T/C was 96 % of control (dose: 6.0 mg/kg/injection, schedule: Q01DX009 (ip), vehicle: saline); 98 % of control (dose: 12.0 mg/kg/injection, schedule: Q01DX009 (ip), vehicle: saline); 103 % of control under setting [9].
`CC1=C(/C=C/C(C)=N/NC(N)=S)C(C)(C)CCC1`: the T/C is 105 % of control (dose: 0.3 mg/kg/injection, schedule: Q01DX009 (ip), vehicle: saline with Tween-80); 97 % of control (dose: 6.0 mg/kg/injection, schedule: Q01DX009 (ip), vehicle: saline with Tween-80); 97 % of control (dose: 12.0 mg/kg/injection, schedule: Q01DX009 (ip), vehicle: saline with Tween-80).
Consider `c1cc2cc3c(cc2cc1CC1NCCc2cc4c(cc21)OCO4)OCO3` (stereo not given), for which the T/C is 97 % of control (dose: 25.0 mg/kg/injection, schedule: Q01DX009 (ip), vehicle: Klucel (hydroxypropylcellulose) (HPC)); 89 % of control (dose: 50.0 mg/kg/injection, schedule: Q01DX009 (ip), vehicle: Klucel (hydroxypropylcellulose) (HPC)); 94 % of control under setting [5].
For `CN(C)CCCN=Cc1cc(Cl)ccc1O.CN(C)CCCN=Cc1cc(Cl)ccc1O.[Ni+2]`, the T/C was 122 % of control (dose: 6.25 mg/kg/injection, schedule: Q01DX009 (ip), vehicle: saline with Tween-80); 116 % of control (dose: 12.5 mg/kg/injection, schedule: Q01DX009 (ip), vehicle: saline with Tween-80); 111 % of control under setting [4].
Regarding `CCCc1c(C)[nH]c2ccccc12`, the T/C is 94 % of control under setting [1], 100 % of control under setting [2] and 88 % of control under setting [3].
